From ChEMBL document CHEMBL1125334, “New nonpeptide angiotensin II receptor antagonists. 2. Synthesis, biological properties, and structure-activity relationships of 2-alkyl-4-(biphenylylmethoxy)quinoline derivatives” (J Med Chem, 1992) come the findings set out here.

Assay [1] deals with T1, Type-1 angiotensin II receptor (Cavia porcellus, UniProt Q9WV26).
T1 sequence (Q9WV26 whole entry): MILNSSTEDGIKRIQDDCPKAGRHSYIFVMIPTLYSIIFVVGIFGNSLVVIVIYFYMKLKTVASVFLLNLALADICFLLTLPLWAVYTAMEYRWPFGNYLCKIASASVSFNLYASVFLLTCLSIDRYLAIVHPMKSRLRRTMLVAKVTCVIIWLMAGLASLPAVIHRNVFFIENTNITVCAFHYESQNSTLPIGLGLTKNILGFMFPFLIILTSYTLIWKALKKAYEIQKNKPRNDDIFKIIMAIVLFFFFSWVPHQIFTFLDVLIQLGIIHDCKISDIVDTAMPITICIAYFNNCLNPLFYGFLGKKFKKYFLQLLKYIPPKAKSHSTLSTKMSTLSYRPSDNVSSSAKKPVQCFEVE
The assay is described as follows: In vitro inhibition of the specific binding of [125I]angiotensin II to a guinea pig adrenal membrane preparation.

The target of assay [2] is Angiotensin II receptor (Rattus norvegicus) (UniProt P29089+P25095+P35351). The assay is described as follows: (§1) Intravenous administration to conscious rats for inhibition of pressor response induced by infusion of AII (angiotensin-II). It counts as functional, organism-based.
A further assay deals with Rattus norvegicus. Described as §1. It counts as functional.

pIC50: −log10 of the molar value. A value given as a limit tells only on which side of the number the result lay.

In general, pIC50 refers to the negative decadic logarithm of the IC50, by convention in mol/L. High values mean a small IC50, low ones a large IC50. In assay [1], `CCc1cc(OCc2ccc(-c3ccccc3-c3nnn[nH]3)cc2)c2ccc(OC)cc2n1` had a pIC50 of 6.66.

Usually ED50 stands for the midpoint of the dose-response relation. High values mean weaker potency, low ones greater potency. For `CCc1cc(OCc2ccc(-c3ccccc3-c3nn[nH]n3)cc2)c2cccc(OC)c2n1`, the negative logarithm of the IC50 (pIC50) in assay [1] was 6.02. The ED50 in assay [2] was > 5 mg/kg.

Regarding `CCc1cc(OCc2ccc(-c3ccccc3-c3nn[nH]n3)cc2)c2cccc(C(F)(F)F)c2n1`, in assay [2], the ED50 is > 5 mg/kg.

Consider `CCc1cc(OCc2ccc(-c3ccccc3-c3nn[nH]n3)cc2)c2cc(C#N)ccc2n1`, for which the ED50 in assay [2] is > 5 mg/kg.

`c1ccc(-c2nnn[nH]2)c(-c2ccc(COc3ccnc4ccccc34)cc2)c1`: the pIC50 in assay [1] was 5.20.

Regarding `CCc1cc(OCc2ccc(-c3ccccc3-c3nn[nH]n3)cc2)c2cc(C(F)(F)F)ccc2n1`, in assay [2], the 50% effective dose (ED50) is > 5 mg/kg.

In assay [1], `CCc1cc(OCc2ccc(-c3ccccc3-c3nn[nH]n3)cc2)c2ccc(C#N)cc2n1` showed a pIC50 of 6.34. Moreover, the ED50 in assay [2] was > 5 mg/kg.

`Cc1cc(CCc2ccc(-c3ccccc3-c3nnn[nH]3)cc2)c2ccccc2n1` showed a pIC50 in assay [1] of 6.57.

Consider `CCc1cc(OCc2ccc(-c3ccccc3-c3nn[nH]n3)cc2)c2ccc(Cl)cc2n1`, for which the negative logarithm of the IC50 (pIC50) in assay [1] is 6.80. Besides, the ED50 in assay [2] was > 5 mg/kg.

In turn, `CCc1cc(OCc2ccc(-c3ccccc3-c3nn[nH]n3)cc2)c2cc(OCC(F)(F)F)ccc2n1` showed a pIC50 in assay [1] of 7.59. This molecule also gave a median effective dose (ED50) in assay [2] of 0.71 mg/kg.

For the molecule `CCc1cc(OCc2ccc(-c3ccccc3-c3nnn[nH]3)cc2)c2c(C#N)cccc2n1`, the pIC50 in assay [1] is 7.22.

`CCc1cc(OCc2ccc(-c3ccccc3-c3nn[nH]n3)cc2)c2cc(OC)ccc2n1` gave a pIC50 in assay [1] of 7.66. The molecule further came in with an ED50 in assay [2] of 0.32 mg/kg.

For `CCc1cc(OCc2ccc(-c3ccccc3-c3nn[nH]n3)cc2)c2ccc(OC)cc2n1`, the ED50 in assay [2] was > 5 mg/kg.

In the case of `CCc1cc(OCc2ccc(-c3ccccc3-c3nnn[nH]3)cc2)c2cc(OC(C)C)ccc2n1`, in assay [1], the pIC50 was 7.59.

Turning to `CCc1cc(OCc2ccc(-c3ccccc3-c3nnn[nH]3)cc2)c2cc(C#N)ccc2n1`, in assay [1], the pIC50 was 6.44.

For `CCCCc1nc(Cl)c(CO)n1Cc1ccc(-c2ccccc2-c2nn[nH]n2)cc1` [LOSARTAN POTASSIUM], the pIC50 in assay [1] is 7.74.

Turning to `Cc1cc(OCc2ccc(-c3ccccc3-c3nn[nH]n3)cc2)c2cccc(C)c2n1`, the pIC50 in assay [1] was 6.51. Besides, the ED50 in assay [2] was > 5 mg/kg.

`Cc1nc2ccccc2c(OCc2ccc(-c3ccccc3-c3nnn[nH]3)cc2)c1C` had a pIC50 in assay [1] of 5.34.

As to `CCc1cc(OCc2ccc(-c3ccccc3-c3nnn[nH]3)cc2)c2cc(C(F)(F)F)ccc2n1`, in assay [1], the pIC50 was 6.07.

Turning to `Cc1ccc2nc(C)cc(OCc3ccc(-c4ccccc4-c4nn[nH]n4)cc3)c2c1`, the negative-log IC50 (pIC50) in assay [1] is 6.33. For the same molecule, the ED50 in assay [2] is > 5 mg/kg.

`Cc1cc(SCc2ccc(-c3ccccc3-c3nn[nH]n3)cc2)c2ccccc2n1` gave a pIC50 in assay [1] of 6.43.

Take `CCc1cc(OCc2ccc(-c3ccccc3-c3nn[nH]n3)cc2)c2ccc(C)cc2n1`: in assay [1], the pIC50 is 6.85. For the same molecule, the median effective dose (ED50) in assay [2] was > 5 mg/kg.

As for `CCc1cc(OCc2ccc(-c3ccccc3-c3nnn[nH]3)cc2)c2c(Cl)cccc2n1`, the pIC50 in assay [1] is 6.92.

With `Cc1cc(OCc2ccc(-c3ccccc3C(=O)O)cc2)c2ccccc2n1`, the pIC50 in assay [1] is 6.74.

The molecule `CCc1cc(OCc2ccc(-c3ccccc3-c3nn[nH]n3)cc2)c2cc(OCCF)ccc2n1` showed a pIC50 in assay [1] of 7.15. In assay [2], this molecule gave an ED50 of 0.34 mg/kg.

In assay [1], `CCc1cc(OCc2ccc(-c3ccccc3-c3nn[nH]n3)cc2)c2cc(C(=O)OC)ccc2n1` showed a pIC50 of 7.18. The molecule further gave an ED50 in assay [2] of 2.1 mg/kg.

Regarding `CCCCc1nc(Cl)c(CO)n1Cc1ccc(-c2ccccc2-c2nnn[nH]2)cc1`, the ED50 in assay [2] was determined as 0.65 mg/kg.

As to `CCc1cc(OCc2ccc(-c3ccccc3-c3nnn[nH]3)cc2)c2c(C)cccc2n1`, in assay [1], the negative-log IC50 (pIC50) was 7.89.

On to `CCc1cc(OCc2ccc(-c3ccccc3-c3nnn[nH]3)cc2)c2ccccc2n1`, for which, in assay [1], the pIC50 is 7.51. Further, in the assay with Rattus norvegicus, the ED50 is 1 mg/kg.

The molecule `CCCCc1nc(Cl)c(CO)n1Cc1ccc(-c2ccccc2C(=O)O)cc1` showed a pIC50 in assay [1] of 6.37.

As to `CCCc1cc(OCc2ccc(-c3ccccc3C(=O)O)cc2)c2ccccc2n1`, the negative logarithm of the IC50 (pIC50) in assay [1] was 6.22.

The molecule `CCc1cc(OCc2ccc(-c3ccccc3-c3nnn[nH]3)cc2)c2cccc(Cl)c2n1` gave a pIC50 in assay [1] of 6.85.

In assay [2], `Cc1cc(OCc2ccc(-c3ccccc3-c3nn[nH]n3)cc2)c2ccccc2n1` came in with an ED50 of 0.73 mg/kg.

`CCc1cc(OCc2ccc(-c3ccccc3-c3nn[nH]n3)cc2)c2c(Cl)cccc2n1`: the 50% effective dose (ED50) in assay [2] was > 5 mg/kg.

In assay [2], `CCc1cc(OCc2ccc(-c3ccccc3-c3nn[nH]n3)cc2)c2cc(OC(C)C)ccc2n1` came in with an ED50 of 0.18 mg/kg.
